Reference: PubChem BioAssay AID1996
In brackets after ≈: the same amount, converted by molar mass.

conditions: buffer; pH 7.4; 200.0 µM

For `CC(=O)c1c(C)[nH]c(C(=O)CSc2ccc(F)cc2)c1C`, which solubility kinetic is on record?
Its solubility kinetic is 2.5 µg/mL (≈ 8.19 µM).

Which solubility kinetic does the source give for `N#C/C(=C\C=C\c1ccccc1)C(=O)N1CCCC1` here?
Its solubility kinetic is 7.3 µg/mL (≈ 28.9 µM).

For `CCN1CCN(c2oc(-c3ccc([N+](=O)[O-])cc3)nc2C#N)CC1`, which solubility kinetic is on record?
The solubility kinetic was 4 µg/mL (≈ 12.2 µM).

For `COc1cccc2c1O/C(=N\O)C(C(=O)Nc1ccc(C)cc1)C2` (stereo not given), which solubility kinetic is on record?
Its solubility kinetic is 45.7 µg/mL (≈ 140 µM).

For `Cc1cccc(OP(N)(=O)Oc2cccc(C)c2)c1`, which solubility kinetic is on record?
The solubility kinetic was 40.6 µg/mL (≈ 146 µM).

With `CCC1(C)NC(=O)N(/N=C/c2ccc(C)s2)C1=O` (stereo not given) as the compound, how does the solubility kinetic read?
Its solubility kinetic is greater than 39.8 µg/mL.

Which solubility kinetic does the source give for `Cc1ccc(S(=O)(=O)c2c(C)c(C)c(C)[nH]c2=O)cc1` here?
Its solubility kinetic is 29.7 µg/mL (≈ 102 µM).

For `O=C1Nc2cccnc2N(C(=O)CCl)c2ccccc21`, which solubility kinetic is on record?
The solubility kinetic was greater than 43.2 µg/mL.

For `CC(C)c1ccc(NC(=O)CN2C(=O)NC3(CCCC3)C2=O)cc1`, which solubility kinetic is on record?
Its solubility kinetic is greater than 49.4 µg/mL.

For `CC1(CCc2ccccc2)NC(=O)N(CC(=O)Nc2c(F)cccc2F)C1=O` (stereo not given), which solubility kinetic is on record?
The solubility kinetic was greater than 58.1 µg/mL.

For `CCOC(=O)Cc1csc(NC(=O)c2ccc(F)cc2)n1`, which solubility kinetic is on record?
Its solubility kinetic is greater than 46.2 µg/mL.

For `O=C1c2ccccc2C(=O)N1C1CCCCC1`, which solubility kinetic is on record?
Its solubility kinetic is 1.3 µg/mL (≈ 5.67 µM).

Which solubility kinetic does the source give for `CC(=O)NC(=S)Nc1cccc2ccc(C)nc12` here?
Its solubility kinetic is 1.1 µg/mL (≈ 4.24 µM).

For `CC(C)N1C(=O)CCC1C(=O)N1CCN(c2ccc(F)cc2)CC1` (stereo not given), which solubility kinetic is on record?
Its solubility kinetic is greater than 50 µg/mL.

With `COc1cc(Cl)c(C)cc1NC(=O)CC1CCCC1` as the compound, how does the solubility kinetic read?
Its solubility kinetic is 2 µg/mL (≈ 7.1 µM).

For `C=CCNC(=O)COc1cc(C)cc(C)c1C`, which solubility kinetic is on record?
The solubility kinetic was 30.8 µg/mL (≈ 132 µM).

With `C=CCOc1ccccc1CNc1ccc2[nH]c(=O)[nH]c2c1` as the compound, how does the solubility kinetic read?
Its solubility kinetic is greater than 44.3 µg/mL.

For `CC(=O)N(CCOc1ccccc1)CCOc1ccccc1`, which solubility kinetic is on record?
The solubility kinetic was greater than 44.9 µg/mL.

For `CSc1nc2ccc(NC(=O)c3ccc(=O)[nH]c3)cc2s1`, which solubility kinetic is on record?
Its solubility kinetic is 16.1 µg/mL (≈ 50.7 µM).

With `N/C(=N\OC(=O)c1ccc(Cl)cc1Cl)c1ccncc1` as the compound, how does the solubility kinetic read?
Its solubility kinetic is 16.5 µg/mL (≈ 53.2 µM).

For `O=C(O)c1ccccc1C(=O)Nc1c(-c2ccccc2)nc2ccccn12`, which solubility kinetic is on record?
Its solubility kinetic is 49.6 µg/mL (≈ 139 µM).

Which solubility kinetic does the source give for `CC(C)CC(=O)N1CCN(Cc2ccccc2Cl)CC1` here?
Its solubility kinetic is 30.7 µg/mL (≈ 104 µM).

With `COc1cccc(C2Nc3ccccc3C(=O)N2Cc2ccccc2)c1` (stereo not given) as the compound, how does the solubility kinetic read?
Its solubility kinetic is 17.3 µg/mL (≈ 50.2 µM).

Which solubility kinetic does the source give for `COc1ccccc1Nc1ncccc1[N+](=O)[O-]` here?
The solubility kinetic was 1.2 µg/mL (≈ 4.89 µM).

For `Cc1ccccc1Nc1c([N+](=O)[O-])cncc1[N+](=O)[O-]`, which solubility kinetic is on record?
The solubility kinetic was 37.1 µg/mL (≈ 135 µM).

Which solubility kinetic does the source give for `O=C(COc1ccc(Cl)cc1Br)Nc1ccncc1` here?
The solubility kinetic was 5 µg/mL (≈ 14.6 µM).

Which solubility kinetic does the source give for `CC1(c2ccccc2)NC(=O)N(CC(=O)Nc2ccc(N3CCOCC3)cc2)C1=O` (stereo not given) here?
The solubility kinetic was 27.6 µg/mL (≈ 67.6 µM).

With `O=C(Cc1ccccc1)NCC(=O)N1CCCCC1` as the compound, how does the solubility kinetic read?
The solubility kinetic was greater than 39.1 µg/mL.

For `Cc1cc(/C=C2\SC(=S)NC2=O)c(C)[nH]1`, which solubility kinetic is on record?
The solubility kinetic was greater than 35.7 µg/mL.

For `Cc1cc(C)cc(CC2CC(=O)N(c3ccc([N+](=O)[O-])cc3)C2=O)c1` (stereo not given), which solubility kinetic is on record?
Its solubility kinetic is less than 0.4 µg/mL.

For `CC(=O)Nc1ccc(Nc2ccc([N+](=O)[O-])cn2)cc1`, which solubility kinetic is on record?
Its solubility kinetic is 15.8 µg/mL (≈ 58 µM).

For `O=C(Nc1cccc(Cl)c1)Nc1sccc1-c1nc2ccccc2s1`, which solubility kinetic is on record?
Its solubility kinetic is 4.5 µg/mL (≈ 11.7 µM).

For `COc1ccc(/C=N/NC(=O)c2cccnc2)cc1`, which solubility kinetic is on record?
Its solubility kinetic is greater than 38.3 µg/mL.

With `CN1CCN(C2CC(=O)N(CCc3ccccc3)C2=O)CC1` (stereo not given) as the compound, how does the solubility kinetic read?
Its solubility kinetic is greater than 45.2 µg/mL.

With `Nc1nc(OCc2ccccc2)c2[nH]cnc2n1` as the compound, how does the solubility kinetic read?
The solubility kinetic was 35.9 µg/mL (≈ 149 µM).

Which solubility kinetic does the source give for `COc1ccc(-n2c3c(cc(C#N)c2=O)C(=O)CCC3)cc1` here?
The solubility kinetic was greater than 44.1 µg/mL.

With `Cc1sc2ncnc(SCC(=O)N3CCCC(C(F)(F)F)C3)c2c1C` (stereo not given) as the compound, how does the solubility kinetic read?
The solubility kinetic was 2.7 µg/mL (≈ 6.93 µM).

For `COC1c2ccccc2C(=O)N1CCc1ccc(Cl)cc1` (stereo not given), which solubility kinetic is on record?
The solubility kinetic was 41.7 µg/mL (≈ 138 µM).

Which solubility kinetic does the source give for `COc1ccc(N2CCN(CCc3ccncc3)CC2)cc1` here?
The solubility kinetic was greater than 44.6 µg/mL.

For `O=C(c1cc(-c2ccc(O)cc2)on1)N1CCCCCC1`, which solubility kinetic is on record?
Its solubility kinetic is greater than 42.9 µg/mL.

With `Cc1cc[n+](CC(=O)Nc2ccccc2)cc1.[Br-]` as the compound, how does the solubility kinetic read?
The solubility kinetic was 45.4 µg/mL.

For `Cc1nc(C)c(C)nc1C`, which solubility kinetic is on record?
The solubility kinetic was less than 0.1 µg/mL.

Which solubility kinetic does the source give for `CC1CCCN(C2(O)C(=O)Nc3c(C(F)(F)F)cccc32)C1` (stereo not given) here?
Its solubility kinetic is greater than 47.1 µg/mL.

For `O=C(N1CCCC1)N1CCN(S(=O)(=O)c2ccccc2)CC1`, which solubility kinetic is on record?
The solubility kinetic was 34.4 µg/mL (≈ 106 µM).

For `CCOc1ccccc1NC(=O)COc1ccc2c(c1)OCO2`, which solubility kinetic is on record?
Its solubility kinetic is less than 0.7 µg/mL.

Which solubility kinetic does the source give for `CC(C)(C)C1CCc2c(sc3nc(SCC(=O)O)nc(N)c23)C1` (stereo not given) here?
The solubility kinetic was 39.4 µg/mL (≈ 112 µM).

With `Nc1cc(=O)[nH]c(SCCSc2ccccc2)n1` as the compound, how does the solubility kinetic read?
Its solubility kinetic is 9.6 µg/mL (≈ 34.4 µM).

Which solubility kinetic does the source give for `CC(C)c1ccccc1NC(=S)NCCCn1ccnc1` here?
Its solubility kinetic is greater than 45.4 µg/mL.

Which solubility kinetic does the source give for `O=C1c2ccccc2CN1C(CO)Cc1ccccc1` (stereo not given) here?
Its solubility kinetic is greater than 40.1 µg/mL.

With `COc1ccc(NC(=O)CNC(=O)C2CCCCC2)cc1` as the compound, how does the solubility kinetic read?
Its solubility kinetic is 39.7 µg/mL (≈ 137 µM).

Which solubility kinetic does the source give for `COc1cc(C(C[N+](=O)[O-])c2c(C)cc3ccccn23)ccc1O` (stereo not given) here?
The solubility kinetic was 8.9 µg/mL (≈ 27.3 µM).

For `CC(=O)OC1OCCOC1NC(=S)Nc1ccc(C)cc1` (stereo not given), which solubility kinetic is on record?
The solubility kinetic was 44.4 µg/mL (≈ 143 µM).

With `O=C(C[n+]1ccc(/C=N/O)cc1)N1CCCCC1.[Cl-]` as the compound, how does the solubility kinetic read?
The solubility kinetic was greater than 42.6 µg/mL.

Which solubility kinetic does the source give for `O=C(COc1cccc(Br)c1)Nc1ccc(Cl)c(S(=O)(=O)N2CCOCC2)c1` here?
Its solubility kinetic is 4.1 µg/mL (≈ 8.37 µM).

For `Cc1ccc(N(C(C)C(=O)N2CCCC2)S(C)(=O)=O)cc1` (stereo not given), which solubility kinetic is on record?
Its solubility kinetic is greater than 46.6 µg/mL.

With `COc1ccc(S(=O)(=O)NC(C)C(=O)N2CCCC2)cc1C` (stereo not given) as the compound, how does the solubility kinetic read?
Its solubility kinetic is 41.9 µg/mL (≈ 128 µM).

With `Cc1cc(C)nc(SCC(=O)Nc2ccc3c(c2)OCO3)n1` as the compound, how does the solubility kinetic read?
Its solubility kinetic is 45.8 µg/mL (≈ 144 µM).

For `CCCOC(=O)C1=C(C)NC(=O)NC1c1ccc(Br)s1` (stereo not given), which solubility kinetic is on record?
The solubility kinetic was 3.1 µg/mL (≈ 8.63 µM).

For `CSc1ncccc1C(=O)OCC(=O)N1CC2(C)CC1CC(C)(C)C2` (stereo not given), which solubility kinetic is on record?
Its solubility kinetic is greater than 54.4 µg/mL.

Which solubility kinetic does the source give for `O=C(NCc1ccccc1)c1csc(-c2cccnc2)n1` here?
Its solubility kinetic is greater than 44.3 µg/mL.
